One data set deals with EGFR (Homo sapiens (Human), UniProt P00533). As to the kind of experiment: ErbB enzyme assay (CisBio HTRF KinEASE-TK), Assay 3. It is filed as biochemical. In a few lines: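 Using a time-resolved FRET read-out, tyrosine phosphorylation of 250 nM biotin substrate at 1 mM ATP (pH 7.4, 10 mM MgCl2, 2% DMSO, 22 °C, 30 min) was quantified against DMSO and pre-quenched controls; IC50 taken at 50% of control.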

The target in data set [1] is ErbB2 insYVMA (HER2-YVMA, SEQ ID NO: 2) (Homo sapiens, UniProt P04626, INS775YVMA/P1170A). As to the kind of experiment: biochemical. The note with it: ErbB2 insYVMA enzyme assay; read-out: Assay 1 IC50.
Chain of ErbB2 insYVMA (HER2-YVMA, SEQ ID NO: 2) (P04626 with tags, fused parts or gaps INS775YVMA/P1170A limits assumed): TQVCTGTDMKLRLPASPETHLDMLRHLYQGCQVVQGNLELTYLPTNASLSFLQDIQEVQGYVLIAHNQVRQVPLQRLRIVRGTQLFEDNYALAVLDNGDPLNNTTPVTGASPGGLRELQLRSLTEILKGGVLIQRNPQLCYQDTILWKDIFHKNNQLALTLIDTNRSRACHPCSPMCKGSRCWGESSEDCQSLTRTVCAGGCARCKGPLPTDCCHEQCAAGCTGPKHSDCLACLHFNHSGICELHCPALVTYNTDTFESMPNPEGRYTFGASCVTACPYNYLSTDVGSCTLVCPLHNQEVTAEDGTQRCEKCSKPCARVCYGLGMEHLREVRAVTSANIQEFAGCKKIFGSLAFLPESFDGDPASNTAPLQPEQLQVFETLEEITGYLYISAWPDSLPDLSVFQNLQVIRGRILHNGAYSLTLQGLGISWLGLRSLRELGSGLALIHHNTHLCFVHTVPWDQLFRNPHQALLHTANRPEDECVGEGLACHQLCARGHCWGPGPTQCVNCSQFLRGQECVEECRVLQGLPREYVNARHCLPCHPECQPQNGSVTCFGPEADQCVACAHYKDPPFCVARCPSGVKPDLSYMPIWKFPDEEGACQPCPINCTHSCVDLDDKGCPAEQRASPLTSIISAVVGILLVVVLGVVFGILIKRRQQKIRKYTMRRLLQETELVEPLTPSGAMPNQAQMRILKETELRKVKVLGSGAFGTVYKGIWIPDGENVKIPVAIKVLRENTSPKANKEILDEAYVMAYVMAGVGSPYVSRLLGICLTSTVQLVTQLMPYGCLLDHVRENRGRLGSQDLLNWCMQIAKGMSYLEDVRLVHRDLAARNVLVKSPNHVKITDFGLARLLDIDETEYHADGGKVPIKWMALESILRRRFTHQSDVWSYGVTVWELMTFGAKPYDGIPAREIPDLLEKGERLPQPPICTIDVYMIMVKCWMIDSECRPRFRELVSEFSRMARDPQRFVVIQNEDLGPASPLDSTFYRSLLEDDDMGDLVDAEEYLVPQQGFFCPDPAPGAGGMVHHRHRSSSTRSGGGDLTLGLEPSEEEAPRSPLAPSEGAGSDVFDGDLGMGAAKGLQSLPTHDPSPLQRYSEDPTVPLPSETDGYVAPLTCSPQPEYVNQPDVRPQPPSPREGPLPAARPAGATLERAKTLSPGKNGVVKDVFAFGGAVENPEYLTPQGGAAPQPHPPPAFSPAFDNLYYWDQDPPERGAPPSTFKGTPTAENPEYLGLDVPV
The target in the next data set is BCRP (Homo sapiens (Human), UniProt Q9UNQ0). The data set is described as follows: BCRP transfected MDCKII canine Mdr1 knockout permeability/efflux, Assay 9. The note with it: dog, Assay 9 Pe Ratio, efflux ratio Papp(B-A)/Papp(A-B), BCRP transfected MDCKII canine Mdr1 knockout.
Another data set deals with EGFR wild type (EGFR WT) (Homo sapiens (Human), UniProt P00533). The data set is described as follows: Cellular phosphorylation assay, EGF-stimulated EGFR phosphorylation in engineered NIH 3T3 cells, Phospho-EGFR DuoSet IC ELISA, Assay 5. In kind it is cell-based. The procedure, abridged:
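Phospho-EGFR ELISA on lysates of engineered NIH 3T3 EGFR WT cells, IC50 derived from concentration curves. Cells plated at 20,000/well overnight, given compound dilutions 1 h at 37 °C, then rEGF 100 ng/ml for a further 10 min before lysis.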

Data set [2] deals with ErbB2 with Exon 20 YVMA insertion (HER2-YVMA) (Homo sapiens (Human), UniProt P04626, INS775YVMA). The data set is described as follows: Cellular phosphorylation assay, constitutive ErbB2 phosphorylation (Y1196) in engineered NIH 3T3 cells, Assay 4. It is filed as cell-based. In a few lines: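 In-cell Western in NIH 3T3 cells carrying ErbB2 exon 20 YVMA insertion, with no ligand stimulation. One hour compound exposure at 37 °C before fixation and anti-pY1196 plus GAPDH staining with dual-wavelength fluorescence. IC50 derived after GAPDH normalization.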
Chain of ErbB2 with Exon 20 YVMA insertion (HER2-YVMA) (P04626 other isoform, or with tags, fused parts or gaps ins YVMA behind 775): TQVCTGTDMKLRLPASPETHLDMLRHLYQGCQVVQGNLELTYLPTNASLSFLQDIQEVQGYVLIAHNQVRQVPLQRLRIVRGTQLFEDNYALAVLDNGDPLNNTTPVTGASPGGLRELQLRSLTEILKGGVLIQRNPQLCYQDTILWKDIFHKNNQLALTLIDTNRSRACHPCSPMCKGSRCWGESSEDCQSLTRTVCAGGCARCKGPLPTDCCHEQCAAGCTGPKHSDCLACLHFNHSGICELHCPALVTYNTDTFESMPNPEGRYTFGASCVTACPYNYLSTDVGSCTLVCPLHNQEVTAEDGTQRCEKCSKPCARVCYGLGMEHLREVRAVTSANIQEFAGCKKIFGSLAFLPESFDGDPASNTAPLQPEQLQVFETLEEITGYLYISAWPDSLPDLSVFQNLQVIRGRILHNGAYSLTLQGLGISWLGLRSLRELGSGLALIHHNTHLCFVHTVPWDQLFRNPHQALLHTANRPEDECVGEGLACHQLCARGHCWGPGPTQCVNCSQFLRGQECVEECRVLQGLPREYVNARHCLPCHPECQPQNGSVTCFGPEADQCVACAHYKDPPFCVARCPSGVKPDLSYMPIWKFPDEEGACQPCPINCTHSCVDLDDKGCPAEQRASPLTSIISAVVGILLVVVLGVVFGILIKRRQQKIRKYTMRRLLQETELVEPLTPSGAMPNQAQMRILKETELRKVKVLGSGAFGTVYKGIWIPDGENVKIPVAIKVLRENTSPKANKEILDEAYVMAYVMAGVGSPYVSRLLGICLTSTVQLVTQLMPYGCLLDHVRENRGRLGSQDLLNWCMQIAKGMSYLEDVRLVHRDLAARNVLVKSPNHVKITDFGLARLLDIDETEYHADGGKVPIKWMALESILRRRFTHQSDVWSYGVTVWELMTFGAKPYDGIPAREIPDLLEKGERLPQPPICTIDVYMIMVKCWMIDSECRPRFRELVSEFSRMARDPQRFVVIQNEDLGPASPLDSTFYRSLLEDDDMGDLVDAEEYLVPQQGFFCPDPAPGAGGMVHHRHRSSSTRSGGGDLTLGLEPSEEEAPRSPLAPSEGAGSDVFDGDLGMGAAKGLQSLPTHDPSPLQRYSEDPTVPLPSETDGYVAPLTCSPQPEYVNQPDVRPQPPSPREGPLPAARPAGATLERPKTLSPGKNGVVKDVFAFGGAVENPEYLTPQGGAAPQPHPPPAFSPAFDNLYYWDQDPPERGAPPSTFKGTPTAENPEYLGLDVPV

A further data set addresses MDR1 (P-gp) (Homo sapiens (Human), UniProt P08183). The data set is described as follows: MDR1 transfected LLC-PK1 permeability/efflux, Assay 6. The note with it: pig, LLC-PK1, Assay 6 Pe Ratio, efflux ratio Papp(B-A)/Papp(A-B), MDR1 transfected LLC-PK1.
Another data set addresses ErbB2 WT (Homo sapiens (Human), UniProt P04626). The data set is described as follows: ErbB enzyme assay (CisBio HTRF KinEASE-TK), Assay 2. It is filed as biochemical. In a few lines:
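Readout is HTRF KinEASE-TK, using Sa-XL665 and cryptate antibody for 1 h at 22 °C, as percent of control between DMSO-only (100) and pre-quenched (0) reactions. The kinase reaction runs 30 min at 22 °C with 1 mM ATP and 250 nM biotinylated TK substrate, in HEPES pH 7.4 with MgCl2 and 2% DMSO.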
For orientation: Time-resolved FRET reads energy transfer from a long-lived donor to a nearby acceptor.

Each structure is given as a SMILES string.

Chain of EGFR (P00533 25-1210): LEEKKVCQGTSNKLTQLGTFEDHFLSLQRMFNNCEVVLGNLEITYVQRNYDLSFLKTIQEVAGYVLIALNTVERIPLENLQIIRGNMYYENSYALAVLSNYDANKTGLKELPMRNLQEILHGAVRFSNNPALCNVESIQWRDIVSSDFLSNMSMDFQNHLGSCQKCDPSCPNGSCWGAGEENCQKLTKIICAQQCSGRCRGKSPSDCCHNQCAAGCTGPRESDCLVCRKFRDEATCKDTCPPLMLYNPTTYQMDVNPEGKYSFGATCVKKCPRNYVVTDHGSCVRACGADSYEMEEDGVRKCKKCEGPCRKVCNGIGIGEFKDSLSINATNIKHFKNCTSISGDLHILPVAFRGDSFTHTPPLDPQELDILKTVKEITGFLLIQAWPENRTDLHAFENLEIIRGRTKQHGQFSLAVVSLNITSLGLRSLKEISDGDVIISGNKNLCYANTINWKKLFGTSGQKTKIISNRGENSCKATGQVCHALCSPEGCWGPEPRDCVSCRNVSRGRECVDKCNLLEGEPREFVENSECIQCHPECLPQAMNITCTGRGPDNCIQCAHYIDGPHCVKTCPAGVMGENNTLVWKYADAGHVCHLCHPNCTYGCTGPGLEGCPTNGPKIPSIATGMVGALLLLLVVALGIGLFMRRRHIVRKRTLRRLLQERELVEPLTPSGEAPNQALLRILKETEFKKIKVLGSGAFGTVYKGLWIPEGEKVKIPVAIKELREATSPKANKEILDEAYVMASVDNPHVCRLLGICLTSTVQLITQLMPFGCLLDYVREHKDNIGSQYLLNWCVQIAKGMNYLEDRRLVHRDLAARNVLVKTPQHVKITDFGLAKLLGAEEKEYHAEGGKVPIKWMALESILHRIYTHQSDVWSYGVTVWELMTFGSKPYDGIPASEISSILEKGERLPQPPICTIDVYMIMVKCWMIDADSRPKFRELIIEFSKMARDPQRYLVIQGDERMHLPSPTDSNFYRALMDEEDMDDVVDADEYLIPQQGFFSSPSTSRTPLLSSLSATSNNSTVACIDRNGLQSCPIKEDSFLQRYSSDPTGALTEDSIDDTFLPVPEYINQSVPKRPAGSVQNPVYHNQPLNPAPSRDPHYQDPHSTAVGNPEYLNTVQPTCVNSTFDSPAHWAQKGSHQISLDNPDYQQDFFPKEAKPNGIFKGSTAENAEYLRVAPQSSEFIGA
Chain of EGFR wild type (EGFR WT) (P00533 25-1210): as above
Procedure for MDR1 (P-gp): Both MDR1 transfected LLC-PK1 (Assay 6) and MDR1 transfected MDCKII canine Mdr1 knockout cells (Assay 7) were cultured and plated according to manufacturer's recommendations with the exception that the passage media for the MDR1 transfected LLC-PK1 cell line contained only 2% fetal bovine serum so as to extend passage time out to seven days.
Both positive and negative controls were used to assess functionality of P-gp or BCRP efflux in the assays. Stock solutions for assay controls and the test article were prepared in DMSO for final test concentration of 1 μM. Final organic concentration in the assay was 1%. All dosing solutions contained 10 μM lucifer yellow to monitor MDCKII cell monolayer integrity.
For the apical to basolateral determination (A to B), 75 μL of the test article in transport buffer were added to the apical side of the individual transwells and 250 μL of basolateral media, without compound or lucifer yellow, were added to each well. For the basolateral to apical determination (B to A), 250 μL of test article in transport buffer were added to each well and 75 μL transport buffer, without compound or lucifer yellow, were added to each transwell. All tests were performed in triplicate, and each compound was tested for both apical to basolateral and basolateral to apical transport. The plates were incubated for 2 hours on a Lab-Line Instruments Titer Orbital Shaker (VWR, West Chester, PA) at 50 rpm and 37° C. with 5% CO2. All culture plates were removed from the incubator, 50 μL of media were removed from the apical and basolateral portion of each well, and added to 150 μL of 1 μM labetalol in 2:1 acetonitrile (ACN): H2O, v/v.
The plates were read using a Molecular Devices (Sunnyvale, CA) Gemini Fluorometer to evaluate the lucifer yellow concentrations at excitation/emission wavelengths of 425/535 nm. These values were accepted when found to be below 2% for apical to basolateral and 5% basolateral to apical flux across the MDR1-transfected LLC-PK1 or BCRP-transfected MDCKII cell monolayers. The plates were sealed, and the contents of each well analyzed by LC MS/MS. The compound concentrations were determined from the ratio of the peak areas of the compound to the internal standard (labetalol) in comparison to the dosing solution.
A MDS Sciex API 4000 (Applied Biosystems, Foster City, CA) mass spectrometer was used for detection of the analytes in the ion spray positive mode. Analyte responses were measured by multiple reaction monitoring (“MRM”) of transitions unique to each compound (the protonated precursor ion and selected product ions for each test article and m/z 329 to m/z 162 for labetalol, the internal standard.
The total run time, including re-equilibration, for a single injection was 1.2 minutes. […] The total run time, including re-equilibration, for a single injection was 0.61 minutes.
An efflux ratio is calculated from the mean apical to basolateral (A-B) Papp data and basolateral to apical (B-A) Papp data: Efflux ratio=Papp(B−A)/Papp(A−B)

The IC50 is the concentration that inhibits the measured activity by half. One may read the efflux ratio as the permeability from basolateral to apical divided by that in the opposite direction, in the common usage. In the case of `Cc1cc(Nc2ncnc3cnc(N4CC5C6CCC(O6)C5C4)nc23)ccc1Oc1ccc2c(c1)ncn2C` (stereo not drawn) [Example 16, N-(3-methyl-4-((1-methyl-1H-benzo[d]imidazol-5-yl)oxy)phenyl)-6-(octahydro-2H-4,7-epoxyisoindol-2-yl)pyrimido[5,4-d]pyrimidin-4-amine], the IC50 at EGFR is not below 10 µM; in data set [1] it was 0.026 µM; at EGFR wild type (EGFR WT), not below 5 µM; in data set [2], 0.0152 µM. Besides, the efflux ratio at 2 h, 1 μM on BCRP turned out to be 1.8; on MDR1 (P-gp), 1.2.
In the case of `Cc1cc(Nc2ncnc3cnc(N4C[C@@H](C)O[C@@H](C)C4)nc23)ccc1Oc1ccc2c(c1)ncn2C` [Example 25, 6-((2S,6R)-2,6-dimethylmorpholino)-N-(3-methyl-4-((1-methyl-1H-benzo[d]imidazol-5-yl)oxy)phenyl)pyrimido[5,4-d]pyrimidin-4-amine], the IC50 against EGFR was not below 10 µM; in data set [1] it was 0.172 µM; in data set [2], 0.0534 µM; against ErbB2 WT it was 0.329 µM. Also, the efflux ratio at 2 h, 1 μM at BCRP was 1.4; at MDR1 (P-gp), 1.7.
Take `Cc1cc(Nc2ncnc3cnc(N4CCC(C)(O)CC4)nc23)ccc1Oc1ccc2c(c1)ncn2C` [Example 209, 4-methyl-1-(8-((3-methyl-4-((1-methyl-1H-benzo[d]imidazol-5-yl)oxy)phenyl)amino)pyrimido[5,4-d]pyrimidin-2-yl)piperidin-4-ol]: the IC50 against EGFR is 9.53 µM; in data set [1], 0.0292 µM; against EGFR wild type (EGFR WT), not below 5 µM; in data set [2], 0.0117 µM; at ErbB2 WT it was 0.0579 µM. Moreover, the efflux ratio at 2 h, 1 μM on MDR1 (P-gp) amounted to 3.3.
Turning to `Cc1cc(Nc2ncnc3cnc(-c4ncco4)nc23)ccc1Oc1ccc2c(c1)ncn2C` [Example 226], the IC50 at EGFR was not below 10 µM; in data set [1], 0.0927 µM; at EGFR wild type (EGFR WT) it was not below 5 µM; in data set [2] it was 0.0654 µM; at ErbB2 WT it was 0.128 µM. For the same compound, the efflux ratio at 2 h, 1 μM on MDR1 (P-gp) worked out at 3.2.
Regarding `Cc1cc(Nc2ncnc3cnc(N4CCCC45COC5)nc23)ccc1Oc1ccc2c(c1)ncn2C` [Example 230], the IC50 on EGFR is 8.56 µM; in data set [1] it was 0.0258 µM; at EGFR wild type (EGFR WT), not below 5 µM; in data set [2], 0.0157 µM; on ErbB2 WT, 0.0292 µM. For the same compound, the efflux ratio at 2 h, 1 μM at MDR1 (P-gp) came to 2.5.
As for `Cc1cc(Nc2ncnc3cnc(N4CC(CS(C)(=O)=O)C4)nc23)ccc1Oc1ccc2c(c1)ncn2C` [Example 232], the IC50 against EGFR is 6.41 µM; in data set [1] it was 0.0153 µM; against EGFR wild type (EGFR WT), not below 5 µM; in data set [2] it was 0.0396 µM; at ErbB2 WT it was 0.0124 µM. In addition, on MDR1 (P-gp), the efflux ratio at 2 h, 1 μM came out at 31.3.
With `Cc1cc(Nc2ncnc3cnc(-c4cscn4)nc23)ccc1Oc1ccc2c(c1)ncn2C` [Example 235], the half-inhibitory concentration (IC50) at EGFR is not below 10 µM; in data set [1], 0.0745 µM; on EGFR wild type (EGFR WT), not below 5 µM; in data set [2] it was 0.0056 µM; against ErbB2 WT it was 0.0541 µM. The efflux ratio at 2 h, 1 μM at MDR1 (P-gp) is 2.9.
For the compound `Cc1cc(Nc2ncnc3cnc(NCC(F)F)nc23)ccc1Oc1ccc2c(c1)ncn2C` [Example 251], the IC50 on EGFR is 1.8 µM; in data set [1], 0.0117 µM; on EGFR wild type (EGFR WT) it was not below 5 µM; in data set [2], 0.0066 µM; at ErbB2 WT, 0.0212 µM. Further, on MDR1 (P-gp), the efflux ratio at 2 h, 1 μM is 2.3.
For `Cc1cc(Nc2ncnc3cnc(N4C[C@@H]5CCCN5C4=O)nc23)ccc1Oc1ccc2c(c1)ncn2C` [Example 254], the IC50 against EGFR was not below 10 µM; in data set [1] it was 0.0532 µM; on EGFR wild type (EGFR WT), not below 5 µM; in data set [2] it was 0.044 µM; against ErbB2 WT, 0.114 µM. For the same compound, the efflux ratio at 2 h, 1 μM at MDR1 (P-gp) turned out to be 9.9.
Turning to `Cc1cc(Nc2ncnc3cnc(NC4COC4)nc23)ccc1Oc1ccc2c(c1)ncn2C` [Example 259], the IC50 is not below 10 µM against EGFR; 0.0297 µM in data set [1]; not below 5 µM at EGFR wild type (EGFR WT); 0.0196 µM in data set [2]; 0.0453 µM on ErbB2 WT. Also, the efflux ratio at 2 h, 1 μM on MDR1 (P-gp) turned out to be 8.8.
For `Cc1cc(Nc2ncnc3cnc(N4CCC(C)S4(=O)=O)nc23)ccc1Oc1ccc2c(c1)ncn2C` (stereo not drawn) [Example 267], the IC50 is 3.95 µM against EGFR; 0.0343 µM in data set [1]; not below 5 µM against EGFR wild type (EGFR WT); 0.0041 µM in data set [2]; 0.0334 µM against ErbB2 WT. The efflux ratio at 2 h, 1 μM on MDR1 (P-gp) is 6.
Consider `CCNc1ncc2ncnc(Nc3ccc(Oc4ccc5c(ccn5C)c4)c(C)c3)c2n1` [Example 269], for which the IC50 against EGFR is 2.4 µM; in data set [1], 0.0121 µM; on EGFR wild type (EGFR WT), not below 5 µM; in data set [2] it was 0.0207 µM; at ErbB2 WT, 0.0167 µM. Further, the efflux ratio at 2 h, 1 μM on MDR1 (P-gp) came to 2.4.
Turning to `Cc1cc(Nc2ncnc3cnc(N[C@@H]4CCOC4)nc23)ccc1Oc1ccc2c(c1)ncn2C` [Example 275], the IC50 against EGFR is 1.65 µM; in data set [1] it was 0.0131 µM; against EGFR wild type (EGFR WT), not below 5 µM; in data set [2] it was 0.018 µM; at ErbB2 WT it was 0.0165 µM. For the same compound, at MDR1 (P-gp), the efflux ratio at 2 h, 1 μM came out at 6.
As to `Cc1cc(Nc2ncnc3cnc(N[C@H]4CN(C)C[C@H]4F)nc23)ccc1Oc1ccc2c(c1)ncn2C` [Example 279], the concentration for half-maximal inhibition (IC50) was 4.09 µM against EGFR; 0.025 µM in data set [1]; not below 5 µM against EGFR wild type (EGFR WT); 0.0012 µM in data set [2]; 0.0506 µM against ErbB2 WT. Also, on MDR1 (P-gp), the efflux ratio at 2 h, 1 μM amounted to 16.6.
As for `Cc1cc(Nc2ncnc3cnc(N4CCN(C)[C@@H](C)C4)nc23)ccc1Oc1ccc2c(c1)ncn2C` [Example 280], the half-inhibitory concentration (IC50) is not below 10 µM at EGFR; 0.0382 µM in data set [1]; not below 5 µM against EGFR wild type (EGFR WT); 0.0147 µM in data set [2]; 0.0782 µM against ErbB2 WT. Further, at MDR1 (P-gp), the efflux ratio at 2 h, 1 μM worked out at 4.
With `Cc1cc(Nc2ncnc3cnc(N4CCN(C)[C@H](C)C4)nc23)ccc1Oc1ccc2c(c1)ncn2C` [Example 281], the IC50 against EGFR is not below 10 µM; in data set [1], 0.0238 µM; at EGFR wild type (EGFR WT), not below 5 µM; in data set [2] it was 0.0266 µM; against ErbB2 WT, 0.0842 µM. The efflux ratio at 2 h, 1 μM at MDR1 (P-gp) came to 2.1.
Take `Cc1cc(Nc2ncnc3cnc(O[C@H]4CCNC[C@H]4F)nc23)ccc1Oc1ccc2c(c1)ncn2C` [Example 284]: the IC50 was not below 10 µM on EGFR; 0.0756 µM in data set [1]; not below 5 µM at EGFR wild type (EGFR WT); 0.0534 µM in data set [2]; 0.681 µM against ErbB2 WT. Further, the efflux ratio at 2 h, 1 μM at MDR1 (P-gp) worked out at 95.4.
With `Cc1cc(Nc2ncnc3cnc(O[C@H]4CCNC[C@@H]4F)nc23)ccc1Oc1ccc2c(c1)ncn2C` [Example 285], the IC50 against EGFR is not below 10 µM; in data set [1], 0.0839 µM; against EGFR wild type (EGFR WT), not below 5 µM; in data set [2], 0.0532 µM; on ErbB2 WT, 0.787 µM. At MDR1 (P-gp), the efflux ratio at 2 h, 1 μM worked out at 72.1.

For the origin of these results see patent publication US11834453B2, “Substituted pyrimido[5,4-d]pyrimidines as HER2 inhibitors” (Array BioPharma Inc., priority 2020, dated 2023).
